Source: patent publication US9980972B2, “Rho kinase inhibitors for use in treating familial amyotrophic lateral sclerosis” (GEORG-AUGUST-UNIVERSITÄT GÖTTINGEN STIFTUNG ÖFFENTLICHEN …, priority 2012, dated 2018)

Assays:
Format in all cases: in vivo, mouse
[1] = tested on: spinal cord motoneurons of SOD1 G93A mice; assay: ChAT positive motoneurons in lumbar spinal cord sections; conditions: for ChAT cell numbers per lumbar spinal cord section / motoneuron count: time of death; for ChAT cell numbers per lumbar spinal cord section: vehicle 6.1±0.95
Procedure: After deep anaesthesia, mice were transcardially perfused with PBS solution followed by 4% paraformaldehyde. Spinal cords, sciatic nerves and gastrocnemius muscles were removed. Spinal cords and gastrocnemius muscles were then postfixed for 2 h in 4% paraformaldehyde. Thereafter, the tissue was dehydrated in 30% sucrose overnight and kept at -20° C. until further processing. Coronal sections of the lumbar spinal cord (L3-L6) (20 μm) and horizontal sections of the tibial muscle (35 μm) were prepared using a Leica Kryostat and collected on gelatine-coated glass slides. Spinal cord sections selected for immunohistochemical processing were first rehydrated. Then antigen-retrieval was performed for 4 h in TBS at 60° C. for later GFAP or Iba1 labeling and for 30 min in sodium citrate (pH 9.0) at 80° C. for later ChAT labeling. […] The primary antibodies (anti-ChAT 1:100, AB144 P, Millipore; anti-GFAP 1:200, DAKO; anti-Iba1 1:500, WAKO, Osaka, Japan) were applied at 4° C. for one night for GFAP and for three nights for ChAT. The secondary antibodies (Cy3 anti-goat or Cy2/Dylight anti rabbit; both Dianova) were applied on separate sections 1:300 for 1 h at room temperature. […] In order to quantify motoneuron numbers in coronal cryosections from the lumbar spinal (L3-L6) cord first the area of the ventral horn was defined according to the criteria from Kong et al. (Kong and Xu 1998). […] At least five sections per mouse spinal cord that were 100 μm apart over a length of at least 500 μm isolated from the lumbar spinal cord were counted. In the d50 treatment group analyzed at death, a total of 20 mice was counted from the vehicle (3 male, 3 female), Fas30 (3 male, 3 female), Fas100 (3 male, 3 female) and wildtype (1 male, 1 female) group. In the […] treatment group analyzed at death, a total of 20 mice was counted from the vehicle (3 male, 3 female), Fas30 (3 male, 3 female), and Fas100 (3 male, 3 female) and wildtype (1 male, 1 female) group. In the d50 treatment group analyzed at […], a total of 20 mice was counted from the vehicle (3 male, 3 female), Fas30 (3 male, 3 female), Fas100 (3 male, 3 female) and wildtype (1 male, 1 female) group.

[2] = tested on: spinal cord astroglia of SOD1 G93A mice; assay: GFAP positive astrocytes in ventral horn of lumbar spinal cord (astrogliosis); conditions: for numbers of GFAP positive astroglia: time of death, presymptomatic
Procedure: After deep anaesthesia, mice were transcardially perfused with PBS solution followed by 4% paraformaldehyde. Spinal cords, sciatic nerves and gastrocnemius muscles were removed. Spinal cords and gastrocnemius muscles were then postfixed for 2 h in 4% paraformaldehyde. Thereafter, the tissue was dehydrated in 30% sucrose overnight and kept at −20° C. until further processing. Coronal sections of the lumbar spinal cord (L3-L6) (20 μm) and horizontal sections of the tibial muscle (35 μm) were prepared using a Leica Kryostat and collected on gelatine-coated glass slides.
Spinal cord sections selected for immunohistochemical processing were first rehydrated. Then antigen-retrieval was performed for 4 h in TBS at 60° C. for later GFAP or Iba1 labeling and for 30 min in sodium citrate (pH 9.0) at 80° C. for later ChAT labeling. After washing for one time in PBS the sections were incubated at room temperature either in PBS and 10% of normal goat serum for later GFAP labeling or in PBS and 5% normal donkey serum for later ChAT labeling to block unspecific binding. The primary antibodies (anti-ChAT 1:100, AB144 P, Millipore; anti-GFAP 1:200, DAKO; anti-Iba1 1:500, WAKO, Osaka, Japan) were applied at 4° C. for one night for GFAP and for three nights for ChAT. The secondary antibodies (Cy3 anti-goat or Cy2/Dylight anti rabbit; both Dianova) were applied on separate sections 1:300 for 1 h at room temperature. Then a nuclear counter-stain with DAPI (4,6-diamidino-2-phenylindole) (Sigma-Aldrich) was performed before mounting in Moviol (Hoechst, Frankfurt, Germany).
Astrogliosis and microgliosis were evaluated by the quantification of GFAP or Iba1 positive cells in the ventral horn of lumbar spinal cord sections, respectively. Again, the area of the ventral horn was defined and GFAP or Iba1 positive cells were manually counted. In the d50 treatment group analyzed at death, a total of 20 mice was counted from the vehicle (3 male, 3 female), Fas30 (3 male, 3 female), Fas100 (3 male, 3 female) and wildtype (1 male, 1 female) group. In the d50 treatment group analyzed at d100, a total of 20 mice was counted from the vehicle (3 male, 3 female), Fas30 (3 male, 3 female), Fas100 (3 male, 3 female) and wildtype (1 male, 1 female) group.
Reactive astrogliosis represents another parameter in the evaluation of histologic manifestation of ALS disease. In human ALS patients, the clinical progression of this neurodegenerative disease seems to be associated with changes in astrocytic cell infiltration in the spinal cord. Therefore, the inventors evaluated the extent of astrogliosis in the lumbar spinal cord by counting the number of GFAP positive astroglial cells in the ventral horn and normalized values to area (FIG. 12).

[3] = tested on: neuromuscular junctions of SOD1 G93A mice; assay: NMJ integrity of gastrocnemius muscle; conditions: Fasudil vs control treated animals
[4] = CSF analysis after sub-occipital cistern magna puncture; conditions: oral via drinking water; data not shown
Procedure: To reach sufficient CSF levels of Fasudil the inventors administered Fasudil (LC Labs, Woburn, USA; product number F-4660) at a low concentration of […] (Fas30) or at a high concentration of 50 mg (Fas100) in 100 ml drinking water. Control groups received the respective amount of isotonic drinking water termed as vehicle (Veh).

[5] = day 100, female, presymptomatic Fas30 vs transgenic vehicle

**Q.** For `O=S(=O)(c1cccc2cnccc12)N1CCCNCC1` [Fasudil, 1-(5-isoquinolinesulfonyl)homopiperazine], which “motoneuron numbers differentiated by cell body size” value ([1]; day 100, female, Fas30 vs transgenic vehicle, trend not significant) is on record?
**A.** The value was “more motoneurons in all size groups”.

**Q.** And the “cumulative cell body size per anterior horn section” value ([1]; day 100, female, Fasudil vs vehicle)?
**A.** The value was “defined trend to be larger”.

**Q.** What about the “numbers of ChAT positive motoneurons” value [1, 5] of the same molecule?
**A.** Its value is “strong trend of elevated numbers of motoneurons”.

**Q.** What about the “ChAT cell numbers per lumbar spinal cord section” value ([1]; female, presymptomatic F100 (high dose)) of the same molecule?
**A.** Its value is 7.3±1.00.

**Q.** And the “ChAT cell numbers per lumbar spinal cord section” value ([1]; female, presymptomatic Fas30)?
**A.** The value was 8.6±0.36.

**Q.** And the motoneuron count ([1]; female, symptomatic treatment groups)?
**A.** The motoneuron count was “did not differ”.

**Q.** And the motoneuron count ([1]; male, presymptomatic Fas30 or Fas100)?
**A.** Its motoneuron count is “did not profit”.

**Q.** What about the motoneuron count ([1]; male, symptomatic Fas30 vs vehicle) of the same molecule?
**A.** Its motoneuron count is “higher motoneuron numbers”.

**Q.** And the GFAP cell number [2, 5]?
**A.** Its GFAP cell number is “significantly reduced”.

**Q.** What about the “numbers of GFAP positive astroglia” value ([2]; Fas30 female, vehicle female 28.91±4.7) of the same molecule?
**A.** The value was 31.6±5.9 per 0.2 mm^2.

**Q.** And the “numbers of GFAP positive astroglia” value ([2]; Fas30 male, vehicle male 31.3±4.7)?
**A.** The value was 38.2±4.4 per 0.2 mm^2.

**Q.** What about the “numbers of GFAP positive astroglia” value ([2]; Fas100 female, vehicle female 28.91±4.7) of the same molecule?
**A.** Its value is 27.9±4.0 per 0.2 mm^2.

**Q.** And the “numbers of GFAP positive astroglia” value ([2]; Fas100 male, vehicle male 31.3±4.7)?
**A.** The value was 29.24±4.5 per 0.2 mm^2.

**Q.** What about the “sciatic nerve axonal pathology and NMJ integrity of gastrocnemius muscle” value [3] of the same molecule?
**A.** The value was “no significant differences”.

**Q.** What about the “blood-brain-barrier crossing (CSF analysis)” value [4] of the same molecule?
**A.** Its value is “readily crossed the blood-brain-barrier”.
